The subject of test [1] is BT-20. The test can be described thus: Antiproliferative activity against human BT20 cell line by MTT assay. The format is functional, cell-based. A general note: Formazan colour is commonly taken as a measure of viable cells.
In test [2] the test system is PC-3. The test can be described thus: Antiproliferative activity against human PC3 cell line by MTT assay. The format is functional, cell-based.
Test [3] deals with RAC-alpha serine/threonine-protein kinase (Homo sapiens, UniProt P31749). The test is described as follows: Inhibition of Akt by fluorescence polarization assay.
The test system of test [4] is COLO357. The test can be described thus: Antiproliferative activity against human COLO357 cell line by MTT assay. The format is functional, cell-based.
Test [5] relates to BXPC-3. The test can be described thus: Antiproliferative activity against human BxPC3 cell line by MTT assay. The format is functional, cell-based.

Chain of RAC-alpha serine/threonine-protein kinase (P31749 whole entry): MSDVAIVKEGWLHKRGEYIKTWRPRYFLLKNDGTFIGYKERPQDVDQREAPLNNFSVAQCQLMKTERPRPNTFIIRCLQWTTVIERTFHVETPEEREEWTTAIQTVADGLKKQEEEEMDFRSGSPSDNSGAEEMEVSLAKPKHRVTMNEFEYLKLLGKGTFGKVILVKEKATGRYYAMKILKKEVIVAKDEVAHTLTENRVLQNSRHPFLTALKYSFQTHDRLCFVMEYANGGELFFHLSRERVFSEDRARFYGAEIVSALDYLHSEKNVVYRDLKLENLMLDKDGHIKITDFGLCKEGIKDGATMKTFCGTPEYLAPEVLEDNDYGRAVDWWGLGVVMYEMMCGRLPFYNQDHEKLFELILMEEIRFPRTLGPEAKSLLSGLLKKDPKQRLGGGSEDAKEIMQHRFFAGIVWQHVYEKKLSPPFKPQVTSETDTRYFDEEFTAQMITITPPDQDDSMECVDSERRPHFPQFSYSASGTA

With `O=c1c(-c2ccc(O)cc2)coc2cc(O)cc(O)c12` [GENISTEIN], the IC50 – broadly, the concentration that inhibits the measured activity by half – in test [1] was 46 µM; in test [2], 50 µM; in test [3], greater than 70 µM; in test [4], 50 µM; in test [5] it was 30 µM.

Source of the values: ChEMBL document CHEMBL1138054, “Synthesis, molecular characterization, and biological activity of novel synthetic derivatives of chromen-4-one in human cancer cells” (J Med Chem, 2006).
